Data on four compounds can be found in patent US6121248A, “Anti-viral agent” (priority 1998, dated 2000).

SMILES strings stand for the structures. Values after ≈ are worked out from the molar mass of the structure shown. Like-named read-outs stand apart in the source and are kept apart here.

One data set concerns varicella-zoster virus. As to the kind of experiment: Anti-viral activity against varicella-zoster virus, microplaque reduction method. It counts as cell-based, varicella-zoster virus (HOSEN strain). The note with it: for EC50: Human alphaherpesvirus 3, MRC5, 72 h, varicella-zoster virus HOSEN strain, MRC-5 cells, 35° C., day 3, read-out: ED50 (50% effective density); for SI (selectivity index, CC50/ED50): varicella-zoster virus. The protocol:
Determination of Anti-viral Activity against Varicella-zoster Virus
(§1) The anti-viral activity against varicella-zoster virus was determined by the microplaque reduction method. That is, MRC-5 cells were cultured in a 96-well microtiter plate until the cells reached the confluent state. Each of the compounds being tested was added to the wells to which a preparation of varicella-zoster virus (HOSEN strain) was subsequently added. The plate was cultured at 35° C. in a CO2 incubator. On day 3 after the culture, physiological saline containing 10% formalin was added to the wells and the plate was allowed to stand overnight to fix the cells to the wells. After wasing the plate, the cells were stained with a crystal violet solution and then washed. The focus formation by varicella-zoster virus was observed microscopically and the number of the foci was counted.
(§2) The concentration of each compound that inhibits by 50% of the number of foci observed in a group containing no compound was determined as a 50% effective density (ED50).
(§3) The selectivity index (SI), which is the ratio of the cytotoxic concentration to the anti-virally effective density, was determined by the equation: […]
(In general: In a plaque reduction assay, fewer plaques than in the control indicate reduced infectivity or spread.)

The nature of data set [1]: Cytotoxicity in virus-free MRC-5 cells (Example 1). The note with it: human. It counts as cell-based. The protocol:
as §1
The virus-free group in which, in place of the preparation of varicella-zoster virus, the culture medium was added to the MRC-5 cells was also cultured in the same manner.

The test system of the next data set is cytomegalovirus. As to the kind of experiment: Anti-viral activity against cytomegalovirus, microplaque reduction method. It counts as cell-based, human cytomegalovirus (AD 169 strain). Conditions: for EC50: Human betaherpesvirus 5, MRC5, 144 h, human cytomegalovirus AD 169 strain, MRC-5 cells, 37° C., day 6, read-out: ED50 (50% effective density); for SI (selectivity index, CC50/ED50): cytomegalovirus. The protocol: Determination of Anti-viral Activity against Cytomegalovirus
(§4) The anti-viral activity against cytomegalovirus was also determined by the microplaque reduction method in the same manner as in Example 1. That is, MRC-5 cells were cultured in a 96-well microtiter plate until the cells reached the confluent state. Each of the compounds being tested was added to the wells to which a preparation of human cytomegalovirus (AD 169 strain) was subsequently added. The plate was cultured at 37° C. in a CO2 incubator. On day 6 after the culture, physiological saline containing 10% formalin was added to the wells and the plate was allowed to stand overnight to fix the cells to the wells. After washing the plate, the cells were stained with a crystal violet solution and then washed. The focus formation by cytomegalovirus was observed microscopically and the number of the foci was counted.
as §2, §3

Data set [2] is described as follows: Cytotoxicity in virus-free MRC-5 cells (Example 2). The class given is cell-based. The note with it: human. The protocol: as §4
The virus-free group in which, in place of the preparation of cytomegalovirus, the culture medium was added to the MRC-5 cells was also cultured in the same manner.

Data set [3] can be described thus: Acute toxicity test, variation of body weight of mice. It counts as in vivo, Mouse: ICR. Conditions: 1 or 2 g/kg ip., male ICR mice. How it is done:
With respect to 2-thio-5-iodocytosine arabinoside (5-I-AraSC) which was evidenced to have the anti-viral effect in vitro, the acute toxicity was also determined in the following manner.
Mouse: ICR, male, 4 weeks;
Drug: 5-I-AraSC, 1 or 2 g/kg, ip., n=6.
The drug 5-I-AraSC was administered in a dosage of 1 or 2 g/kg to each mouse intraperitoneally, and the variation of a body weight of each mouse was examined.

[4] abbreviates: MRC-5 cells, virus-free, cultured as in varicella-zoster test (day 3), read-out: CC50 (50% cytotoxic concentration).

Regarding `Nc1nc(=S)n([C@@H]2O[C@H](CO)[C@@H](O)[C@@H]2O)cc1Br` [2-thio-5-bromocytosine arabinoside], in the data set with varicella-zoster virus, the EC50 was 7.5 µg/mL (≈ 22.2 µM) and the “SI (selectivity index, CC50/ED50)” value is recorded as > 13. For the same compound, the CC50 at 72 h in data set [1] (mrc-5 cells) is > 100 µg/mL. For the same compound, in the data set on cytomegalovirus, the EC50 is 2.4 µg/mL (≈ 7.1 µM) and the “SI (selectivity index, CC50/ED50)” value was > 42. For the same compound, the CC50 at 144 h in data set [2] (mrc-5 cells) is > 100 µg/mL.

For `Nc1nc(=S)n([C@@H]2O[C@H](CO)[C@@H](O)[C@@H]2O)cc1F` [2-thio-5-fluorocytosine arabinoside], in the data set with varicella-zoster virus, the EC50 stood at 1.65 µg/mL (≈ 5.95 µM) and the “SI (selectivity index, CC50/ED50)” value is on record as > 60. Besides, in data set [1] (setting [4]), the CC50 at 72 h was > 100 µg/mL. In the data set with cytomegalovirus, the EC50 is 0.16 µg/mL (≈ 0.577 µM) and the “SI (selectivity index, CC50/ED50)” value is on record as > 625. Further, the CC50 at 144 h in data set [2] (MRC-5 cells, virus-free, cultured as in cytomegalovirus test (day 6), read-out: CC50 (50% cytotoxic concentration)) is > 100 µg/mL.

`Nc1nc(=S)n([C@@H]2O[C@H](CO)[C@@H](O)[C@@H]2O)cc1I` [2-thio-5-iodocytosine arabinoside]: in the data set on varicella-zoster virus, the EC50 came out at 0.7 µg/mL (≈ 1.82 µM) and the “SI (selectivity index, CC50/ED50)” value is > 143. Further, the CC50 at 72 h in data set [1] (mrc-5 cells) was > 100 µg/mL. In addition, in the data set with cytomegalovirus, the EC50 is 0.26 µg/mL (≈ 0.675 µM) and the “SI (selectivity index, CC50/ED50)” value is > 385. Also, the CC50 at 144 h in data set [2] (mrc-5 cells) was > 100 µg/mL. For the same compound, the “death of the mice” value in data set [3] (during the test) was “No death of the mice was observed during the test”. In data set [3] (overall conclusion), the acute toxicity result is on record as “not so strong”.

As for `O=c1[nH]c(=S)n([C@@H]2O[C@H](CO)[C@@H](O)[C@@H]2O)cc1I` [2-thio-5-iodouracil arabinoside], in the data set on varicella-zoster virus, the EC50 was 3.1 µg/mL (≈ 8.03 µM) and the “SI (selectivity index, CC50/ED50)” value stood at 6.5. The CC50 at 72 h in data set [1] (setting [4]) amounted to 20 µg/mL (≈ 51.8 µM).
